Measured values: US20250170268A1, “METHODS AND TOOLS FOR CONJUGATION TO ANTIBODIES” (priority 2022, published 2025)

Experiments:
Format in all cases: cell-based
Settings in all cases: Homo sapiens
[1] = system: CEACAM5-positive SK-CO-1 cells; experiment: Cell viability assay (Cell Titer-Glo, six days) on SK-CO-1
Protocol: (§1) Cytotoxicity effects of the ADC on the cancer cell lines were measured by cell viability assays. Cells were seeded in a volume of 90 μL in 96-well plates the day before treatment. Test compounds (ADCs or free payloads) were formulated at 10-fold the starting concentration in cell culture medium. Test compounds were serial diluted (1:4) and 10 μL of each dilution was added to the cells in triplicates. Plates were cultured at 37° C. in a CO2 incubator for six days. For cell viability measurement, Cell Titer-Glo® reagent (Promega™ Corp, Madison, WI) was added to each well, and plates processed according to the manufacturer's instructions. Luminescence signals were measured using a Varioskan plate reader (Thermo Fisher). Luminescence readings were converted to % viability relative to untreated cells. Data was fitted with non-linear regression analysis, using log (inhibitor) vs. response, variable slope, 4-parameter fit equation using Genedata Screener or GraphPad Prism. Data is shown as % relative cell viability vs. molar compound concentration, error bars indicating standard deviation (SD) of duplicates or triplicates. Geometric mean values of IC50s derived from multiple experiments were calculated.
(§2) A fold reduction in IC50, defined as a S[…], was calculated by dividing the IC50 against CEACAM5-negative MDA-MB-231 cells by the IC50 against each CEACAM5-positive cell line (see Table 6). […]

[2] = system: CEACAM5-positive SNU-16 cells; experiment: Cell viability assay (Cell Titer-Glo, six days) on SNU-16
Protocol: as §1, §2

[3] = system: CEACAM5-positive MKN-45 cells; experiment: Cell viability assay (Cell Titer-Glo, six days) on MKN-45
Protocol: as §1, §2

[4] = system: CEACAM5-positive LS174T cells; experiment: Cell viability assay (Cell Titer-Glo, six days) on LS174T
Protocol: as §1

[5] = system: CEACAM5-negative MDA-MB-231 cells; experiment: Cell viability assay (Cell Titer-Glo, six days) on MDA-MB-231
Protocol: as §1, §2

IC50 ([1]; 144 h, read-out: SK-CO-1 IC50 [M], n ≥ 2, SK-CO-1, CEACAM5 positive, six days, geometric mean): 2.2e-10 M | IC50 ([2]; 144 h, read-out: SNU-16 IC50 [M], n ≥ 2, SNU-16, CEACAM5 positive, six days, geometric mean): 2.9e-10 M | IC50 ([3]; 144 h, read-out: MKN-45 IC50 [M], n ≥ 2, MKN-45, CEACAM5 positive, six days, geometric mean): 6.6e-10 M | IC50 ([5]; 144 h, read-out: MDA-MB-231 IC50 [M], n ≥ 3, MDA-MB-231, CEACAM5 negative, six days, n/a = below −50% effect cut-off): 6e-10 M
Structure (SMILES): CC[C@@]1(O)C(=O)OCc2c1cc1n(c2=O)Cc2c-1nc1cc(F)c(C)c3c1c2[C@@H](N)CC3 [Payload, (1S,9S)-1-Amino-9-ethyl-5-fluoro-1,2,3,9,12,15-hexahydro-9-hydroxy-4-methyl-10H, 13H-benzo (de) pyrano (3′,4′: 6,7) indolizino (1,2-b) quinoline-10,13-dione]
Emax ([1]; SK-CO-1, at the highest tested compound concentration, read-out: Maximal effect compared to untreated controls, SK-CO-1): -97% | Emax ([2]; SNU-16, at the highest tested compound concentration, read-out: Maximal effect compared to untreated controls, SNU-16): -99% | Emax ([3]; MKN-45, at the highest tested compound concentration, read-out: Maximal effect compared to untreated controls, MKN-45): -100% | IC50 ([4]; 144 h, read-out: LS174T IC50 [M], n ≥ 2, CEACAM5 positive, six days, geometric mean): 3e-10 M | Emax ([4]; at the highest tested compound concentration, read-out: Maximal effect compared to untreated controls, LS174T): -91% | Emax ([5]; MDA-MB-231, at the highest tested compound concentration, read-out: Maximal effect compared to untreated controls, MDA-MB-231): -91%
